pIC50: −log10 of the molar value.
Tests used:
[1] = system: OVCAR3 cells; experiment: Cell proliferation activity test, OVCAR3 (CyQUANT Direct); assay type: cell-based; conditions: Homo sapiens, OVCAR-3, 72 h, 3 days incubation, CyQUANT fluorescence detection, read-out: OVCAR-3 Cell Viability_IC50_nM
Method in brief: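 OVCAR3 cells seeded overnight, then exposed to compounds at 0-10 μM final (0.20% DMSO) for 3 days at 37° C. Cell number read by CyQUANT Direct fluorescence after 60 min at 37° C.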

[2] = system: HT29 cells; experiment: CyQuant cell proliferation activity test, HT29; assay type: cell-based; conditions: Homo sapiens, HT-29, 72 h, HT29 2000 cells per well, 3 days incubation, initial concentration 3000 nM, IC50 by XLFIT, read-out: HT-29 Cell Viability_IC50_nM
Method: Materials and Cells: HT29 cells were purchased from Nanjing Cobioer Biosciences Co., Ltd.; RPM-1640 medium, fetal bovine serum, Trypsin-EDTA (0.25%), DMSO, 96-well plates, and CyQuant reagents were purchased from ThermoFisher (USA).
Cell Culture: Culture HT29 cells with RPMI-1640 containing 10% fetal bovine serum under the condition of 37° C. and 5% CO2. Only cells in the logarithmic growth phase can be used for the test.
Cell Proliferation Activity Test: Use the CyQuant reagent to detect the proliferation inhibitory activity of compounds on HT29 cells. Adjust the cell density and inoculate 100 μL per well into the 96-well plate (HT29 at 2000 cells per well), then incubate overnight under the condition of 37° C. and […]. Add compounds of various target concentrations (initial concentration of 3000 nM, 3-fold dilution, 9 concentration gradients), and make the DMSO content 0.20%. Incubate the cell plates at 37° C. and 5% CO2 for 3 days. Incubate with CyQuant reagent for 1 h, read the plate by Envision, and calculate IC50 using XLFIT.

[3] = target: T1, Human KIF18A (amino acid sequence 1-417) (Homo sapiens, UniProt Q8NI77); experiment: Enzyme activity detection experiment (ADP-Glo, KIF18A with tubulin and ATP); assay type: biochemical; conditions: tubulin 60 μg/mL, ATP 25 μM, KIF18A protein 2.5 nM, 120 minutes at ambient temperature, ADP-Glo chemiluminescence
T1 construct: purchased Viva Biotech (Shanghai) Ltd
Method in brief: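 KIF18A (2.5 nM) was incubated with tubulin (60 μg/mL as added), ATP (25 μM) and serially diluted compound for 120 min at ambient temperature. ADP formed was detected by ADP-Glo: reagent for 30 min, then detection reagent for 30 min in the dark, with chemiluminescence read-out.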

T1 sequence (Q8NI77 1-417): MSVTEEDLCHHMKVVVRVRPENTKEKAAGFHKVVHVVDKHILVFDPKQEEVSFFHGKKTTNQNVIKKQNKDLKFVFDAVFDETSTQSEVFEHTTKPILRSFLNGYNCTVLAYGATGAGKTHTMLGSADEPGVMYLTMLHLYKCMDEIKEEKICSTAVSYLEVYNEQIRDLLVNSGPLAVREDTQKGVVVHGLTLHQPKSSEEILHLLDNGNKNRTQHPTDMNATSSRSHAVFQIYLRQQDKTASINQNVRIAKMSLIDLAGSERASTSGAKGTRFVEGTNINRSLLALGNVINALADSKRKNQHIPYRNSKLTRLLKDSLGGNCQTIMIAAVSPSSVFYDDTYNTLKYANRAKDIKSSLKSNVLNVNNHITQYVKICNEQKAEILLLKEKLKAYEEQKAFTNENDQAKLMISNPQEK
T1 sequence (Q2XVP4 whole entry partner): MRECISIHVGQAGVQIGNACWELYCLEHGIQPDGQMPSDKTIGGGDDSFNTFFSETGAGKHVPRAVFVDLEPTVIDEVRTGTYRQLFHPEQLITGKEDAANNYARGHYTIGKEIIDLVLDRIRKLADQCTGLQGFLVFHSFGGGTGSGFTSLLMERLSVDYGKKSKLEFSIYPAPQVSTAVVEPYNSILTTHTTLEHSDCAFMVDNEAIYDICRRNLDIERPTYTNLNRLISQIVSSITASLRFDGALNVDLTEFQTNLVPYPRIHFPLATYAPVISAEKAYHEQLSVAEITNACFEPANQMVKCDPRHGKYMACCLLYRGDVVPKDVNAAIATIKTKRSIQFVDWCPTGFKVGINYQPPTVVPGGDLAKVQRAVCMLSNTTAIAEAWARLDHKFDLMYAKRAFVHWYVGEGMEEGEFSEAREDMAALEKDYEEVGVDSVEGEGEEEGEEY
T1 sequence (P02554 whole entry partner): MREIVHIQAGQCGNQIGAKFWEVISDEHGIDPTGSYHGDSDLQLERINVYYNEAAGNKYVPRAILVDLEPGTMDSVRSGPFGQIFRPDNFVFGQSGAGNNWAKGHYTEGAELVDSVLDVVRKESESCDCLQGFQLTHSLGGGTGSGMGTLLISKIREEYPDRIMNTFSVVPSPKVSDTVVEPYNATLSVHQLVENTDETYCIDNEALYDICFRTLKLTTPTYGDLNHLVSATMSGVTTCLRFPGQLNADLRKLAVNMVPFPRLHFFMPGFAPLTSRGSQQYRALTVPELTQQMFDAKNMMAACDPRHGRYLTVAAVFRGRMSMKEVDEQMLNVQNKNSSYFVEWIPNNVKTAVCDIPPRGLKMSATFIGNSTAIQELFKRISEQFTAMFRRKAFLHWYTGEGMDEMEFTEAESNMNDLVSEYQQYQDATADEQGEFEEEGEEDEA

## Cc1cc(-c2cn(-c3ccc(NS(=O)(=O)CCO)cc3N3CCC4(CC3)CC4)nn2)nc(C2=CCC(F)(F)CC2)n1 [Example 37, N-(4-(4-(2-(4,4-difluorocyclohex-1-en-1-yl)-6-methylpyrimidin-4-yl)-1H-1,2,3-triazol-1-yl)-3-(6-azaspiro[2.5]octan-6-yl)phenyl)-2-hydroxyethane-1-sulfonamide]
[1]
  pIC50: 7.06
[2]
  pIC50: 6.79
[3]
  pIC50: 6.60

## Cc1cc(-c2cn(-c3ccc(NS(=O)(=O)CCO)cc3N3CCC4(CC3)CC4)nn2)nc(C2CCOCC2)n1 [Example 36, 2-hydroxy-N-(4-(4-(6-methyl-2-(tetrahydro-2H-pyran-4-yl)pyrimidin-4-yl)-1H-1,2,3-triazol-1-yl)-3-(6-azaspiro[2.5]octan-6-yl)phenyl)ethane-1-sulfonamide]
[1]
  pIC50: 7.52
[2]
  pIC50: 7.41
[3]
  pIC50: 7.30

## Cc1cc(-c2cn(-c3ccc(NS(=O)(=O)[C@H](C)CO)cc3N3CCC4(CC3)CC4)nn2)nc(N2CCC(F)(F)CC2)n1 [Example 83, (2R)—N-(3-{6-azaspiro[2.5]octan-6-yl}-4-{4-[2-(4,4-difluoropiperidin-1-yl)-6-methylpyrimidin-4-yl]-1H-1,2,3-triazol-1-yl}phenyl)-1-hydroxypropane-2-sulfonamide]
[1]
  pIC50: 7.89
[2]
  pIC50: 7.80
[3]
  pIC50: 6.93

## COc1cc(-c2cn(-c3ccc(NS(=O)(=O)CCO)cc3N3CCC4(CC3)CC4)nn2)nc(N2CCC(F)(F)CC2)n1 [Example 51, N-(4-(4-(2-(4,4-difluoropiperidin-1-yl)-6-methoxypyrimidin-4-yl)-1H-1,2,3-triazol-1-yl)-3-(6-azaspiro[2.5]octan-6-yl)phenyl)-2-hydroxyethanesulfonamide]
[1]
  pIC50: 7.62
[2]
  pIC50: 7.66
[3]
  pIC50: 6.88

## Cc1cc(-c2cn(-c3ccc(NS(=O)(=O)CCO)cc3N3CCC4(CC3)CC4)nn2)nc(N2CCCCC2)n1 [Example 41, 2-hydroxy-N-(4-(4-(6-methyl-2-(piperidin-1-yl)pyrimidin-4-yl)-1H-1,2,3-triazol-1-yl)-3-(6-azaspiro[2.5]octan-6-yl)phenyl)ethanesulfonamide]
[1]
  pIC50: 7.82
[2]
  pIC50: 7.85
[3]
  pIC50: 7.36

## Cc1cc(-n2cnc(-c3ccc(NS(=O)(=O)CCO)cc3N3CCC4(CC3)CC4)c2)cc(N2CCC(F)(F)CC2)n1 [Example 13, N-(4-(1-(2-(4,4-difluoropiperidin-1-yl)-6-methylpyridin-4-yl)-1H-imidazol-4-yl)-3-(6-azaspiro[2.5]octan-6-yl)phenyl)-2-hydroxyethane-1-sulfonamide]
[1]
  pIC50: 6.33
[2]
  pIC50: 6.35
[3]
  pIC50: 5.89

## Cc1cc(-c2nnc(-c3ccc(NS(=O)(=O)CCO)cc3N3CCC4(CC3)CC4)s2)nc(N2CCC(F)(F)CC2)n1 [Example 14, N-(4-(5-(2-(4,4-difluoropiperidin-1-yl)-6-methylpyrimidin-4-yl)-1,3,4-thiadiazol-2-yl)-3-(6-azaspiro[2.5]oct-6-yl)phenyl)-2-hydroxyethane-1-sulfonamide]
[1]
  pIC50: 6.84
[2]
  pIC50: 7.06
[3]
  pIC50: 6.80

## Cc1cc(-c2nnc(-c3ccc(NS(=O)(=O)CCO)cc3N3CCC4(CC3)CC4)o2)nc(N2CCC(F)(F)CC2)c1 [Example 25, N-(4-(5-(6-(4,4-difluoropiperidin-1-yl)-4-methylpyridin-2-yl)-1,3,4-oxadiazol-2-yl)-3-(6-azaspiro[2.5]octan-6-yl)phenyl)-2-hydroxyethane-1-sulfonamide]
[1]
  pIC50: 7.04
[2]
  pIC50: 6.91
[3]
  pIC50: 7.34

## Cc1cc(-n2cnc(-c3ccc(NS(=O)(=O)CCO)cc3N3CCC4(CC3)CC4)c2)nc(N2CCC(F)(F)CC2)n1 [Example 12, N-(4-(1-(2-(4,4-difluoropiperidin-1-yl)-6-methylpyrimidin-4-yl)-1H-imidazol-4-yl)-3-(6-azaspiro[2.5]octan-6-yl)phenyl)-2-hydroxyethane-1-sulfonamide]
[1]
  pIC50: 6.33
[2]
  pIC50: 6.25
[3]
  pIC50: < 5.52

## O=S(=O)(CCO)Nc1ccc(-c2nnc(-c3cc4cccnc4c(N4CCC(F)(F)CC4)c3F)o2)c(N2CCC3(CC2)CC3)c1 [Example 30, N-(4-(5-(8-(4,4-difluoropiperidin-1-yl)-7-fluoroquinolin-6-yl)-1,3,4-oxadiazol-2-yl)-3-(6-azaspiro[2.5]octan-6-yl)phenyl)-2-hydroxyethane-1-sulfonamide]
[1]
  pIC50: 7.26
[2]
  pIC50: 7.21
[3]
  pIC50: 6.59

## Cc1cc(-c2nnc(-c3ccc(NS(=O)(=O)CCO)cc3N3CCC4(CC3)CC4)o2)nc(N2CCO[C@H](C)C2)n1 [Example 18, (R)-2-hydroxy-N-(4-(5-(6-methyl-2-(2-methylmorpholino)pyrimidin-4-yl)-1,3,4-oxadiazol-2-yl)-3-(6-azaspiro[2.5]octan-6-yl)phenyl)ethane-1-sulfonamide]
[1]
  pIC50: 7.52
[2]
  pIC50: 7.59
[3]
  pIC50: 7.28

## O=S(=O)(CCO)Nc1ccc(/C(F)=C/c2cc(N3CCC(F)(F)CC3)c3ncccc3c2)c(N2CCC3(CC2)CC3)c1 [Example 2, (Z)-N-(4-(2-(8-(4,4-difluoropiperidin-1-yl)quinolin-6-yl)-1-fluorovinyl)-3-(6-azasppiro[2.5]octan-6-yl)phenyl)-2-hydroxyethane-1-sulfonamide]
[1]
  pIC50: 6.12
[2]
  pIC50: 6.09
[3]
  pIC50: < 5.52

## Nc1cc2cc(-c3cn(-c4ccc(NS(=O)(=O)CCO)cc4N4CCC5(CC4)CC5)nn3)cc(N3CCC(F)(F)CC3)c2nn1 [Example 77, N-(4-(4-(3-amino-8-(4,4-difluoropiperidin-1-yl)cinnolin-6-yl)-1H-1,2,3-triazol-1-yl)-3-(6-azaspiro[2.5]octan-6-yl)phenyl)-2-hydroxyethane-1-sulfonamide]
[1]
  pIC50: 7.89
[2]
  pIC50: 7.92
[3]
  pIC50: 7.19

## Cc1cc(-c2nnc(-c3ccc(NS(=O)(=O)CCO)cc3N3CCC4(CC3)CC4)o2)cc(N2CCC(F)(F)CC2)n1 [Example 24, N-(4-(5-(2-(4,4-difluoropiperidin-1-yl)-6-methylpyridin-4-yl)-1,3,4-oxadiazol-2-yl)-3-(6-azaspiro[2.5]octan-6-yl)phenyl)-2-hydroxyethane-1-sulfonamide]
[1]
  pIC50: 7.80
[2]
  pIC50: 7.70
[3]
  pIC50: 7.29

## O=S(=O)(CCO)Nc1ccc(-n2cc(-c3cc(N4CCC(F)(F)CC4)c4ncccc4c3)nn2)c(N2CCC3(CC2)CC3)c1 [Example 72, N-(4-(4-(8-(4,4-difluoropiperidin-1-yl)quinolin-6-yl)-1H-1,2,3-triazol-1-yl)-3-(6-azaspiro[2.5]octan-6-yl)phenyl)-2-hydroxyethane-1-sulfonamide]
[1]
  pIC50: 7.70
[2]
  pIC50: 7.60
[3]
  pIC50: 6.72

## Cc1cc(-c2nnc(-c3ccc(N4CCCS4(=O)=O)cc3N3CCC4(CC3)CC4)o2)nc(N2CCC(F)(F)CC2)n1 [Example 28, 2-(4-(5-(2-(4,4-difluoropiperidin-1-yl)-6-methylpyrimidin-4-yl)-1,3,4-oxadiazol-2-yl)-3-(6-azaspiro[2.5]octan-6-yl)phenyl)isothiazolidine 1,1-dioxide]
[1]
  pIC50: 6.93
[2]
  pIC50: 6.72
[3]
  pIC50: 6.53

## Cc1cc(-c2nnc(-c3ccc(NS(=O)(=O)CCO)cc3N3CCC4(CC3)CC4)o2)nc(N2CCCC(O)C2)n1 (stereo not drawn) [Example 17, 2-hydroxy-N-(4-(5-(2-(3-hydroxypiperidin-1-yl)-6-methylpyrimidin-4-yl)-1,3,4-oxadiazol-2-yl)-3-(6-azaspiro[2.5]octan-6-yl)phenyl)ethane-1-sulfonamide]
[1]
  pIC50: 7.13
[2]
  pIC50: 6.47
[3]
  pIC50: 7.34

## Cc1cc(-c2cn(-c3ccc(NS(=O)(=O)CCO)cc3N3CCC4(CC3)CC4)nn2)nc(N2C3CCC2COC3)n1 [Example 48, N-(4-(4-(2-(3-oxa-8-azabicyclo[3.2.1]octan-8-yl)-6-methylpyrimidin-4-yl)-1H-1,2,3-triazol-1-yl)-3-(6-azaspiro[2.5]octan-6-yl)phenyl)-2-hydroxyethane-1-sulfonamide]
[1]
  pIC50: 7.77
[2]
  pIC50: 7.85
[3]
  pIC50: 7.66

## O=S(=O)(CCO)Nc1ccc(-n2cc(-c3cc(O)nc(N4CCC(F)(F)CC4)n3)nn2)c(N2CCC3(CC2)CC3)c1 [Example 52, N-(4-(4-(2-(4,4-difluoropiperidin-1-yl)-6-hydroxypyrimidin-4-yl)-1H-1,2,3-triazol-1-yl)-3-(6-azaspiro[2.5]octan-6-yl)phenyl)-2-hydroxyethane-1-sulfonamide]
[1]
  pIC50: 6.96
[2]
  pIC50: 6.52
[3]
  pIC50: 7.60

## Cc1cc(-c2cn(-c3ccc(NS(=O)(=O)CCO)cc3N3CCC4(CC3)CC4)nn2)cc(N2CCC(F)(F)CC2)n1 [Example 64, N-(4-(4-(2-(4,4-difluoropiperidin-1-yl)-6-methylpyridin-4-yl)-1H-1,2,3-triazol-1-yl)-3-(6-azaspiro[2.5]octan-6-yl)phenyl)-2-hydroxyethane-1-sulfonamide]
[1]
  pIC50: 7.57
[2]
  pIC50: 7.57
[3]
  pIC50: 6.75

From patent publication US20250304551A1 (SHANGHAI APEIRON THERAPEUTICS COMPANY LIMITED, priority 2022, published 2025)
